Each structure is given as a SMILES string. “Also recorded” adds a separate entry of the source. Structures can show the parent of a compound that is named as a salt. Where two headings read alike, the source gives them in different places.

Series [1] is described as follows: Circular dichroism blank run of the drug alone. The conditions noted are these: for ellipticity of drug alone: 215 nm to 230 nm / 222 nm; for molar ellipticity [θ] of drug alone, 30° C.: no enzyme, 222 nm. The series is classed as physicochemical. How it is done:
(§1) A baseline of the solution is obtained using 222 nm without removing the cell after a run is begun to allow for thermal stabilization. Prior to adding the drug to the enzyme, a blank run consisting only of the drug at the same concentration used in the enzyme study is made. To obtain control data, temperature changes of 5 degrees centigrade in the neuroreceptor solution alone are made using a Forma water bath. Then the drug is added to a sample of the purified neuroreceptor solution, and the stabilizing effect of the drug on the temperature-related conformational changes is noted. All temperature runs are allowed to equilibrate for one hour before data is collected.
(§2) Again CD spectra were obtained using the above thermal apparatus over the range of 230 nm to 215 nm. A baseline of the enzyme solution was obtained using 300 nm to 285 nm without removing the cell after a run was begun. Prior to adding the drug to the enzyme, a blank run consisting only of the drug at the same concentration used in the enzyme study was made. To obtain control data, temperature changes in the enzyme solution alone were made using a Forma water bath. Then the drug was added to another enzyme solution with the same protein concentration which came from the stock solution, and temperature effects were noted. All temperature runs were allowed to equilibrate for one hour before data were collected.
(Circular dichroism is the unequal absorption of left and right circularly polarised light.)

For series [2], the system named is AChE preparation (sodium channel neuroreceptor). Nature of the series: Circular dichroism bioassay at 222 nm: temperature-dependent helix-coil transition of the AChE/neuroreceptor preparation in presence of drug. Particulars: for molar ellipticity [θ] at 222 nm, 30° C. / molar ellipticity [θ] at 222 nm, 35° C. / molar ellipticity [θ] at 222 nm, 38° C. / stabilization of the alpha helix / prevention of the helical transition between 30° C. and 35° C.: pH 7.0; for temperature needed to elicit the helix-coil transition in presence of drug: versus preparation without drug; for stabilization of the alpha helix / prevention of the helical transition between 30° C. and 35° C.: fresh preparations. It is filed as binding, bovine. How it is done:
as §1
All studies are made in 1 mm, 5 mm and 2 mm cells using a Jouan Dichrograph II at 1×10^-5 O.D./mm sensitivity. The sample solution consists of 30 mM Na2 HPO4, pH 7.0, and the enzyme. Protein concentration is determined empirically and then measured by the Lowry method after the run. Lowry, et al., J Biol Chem, 193: 265-275 (1951). Samples are taken directly from G-200 fractions or DEAE-Cellulose fractions previously dialyzed against 30 mM Na2 HPO4, pH 7.0.
Thermal studies are carried out in the 10 mm cell. Care must be taken not to misplace the cell in the cell holder to avoid spectral changes. Additionally, since the absorption is affected by pressure, the ORD cell's glass stopper must be gently seated. for the thermal runs of Prep A, a micro-thermometer is used to record the temperature in the ORD cell after each spectral recording.
The routine consists of beginning a CD spectral scan followed by running each activity blank at that temperature using 3 minute reading intervals. The next CD spectral scan is made after recording the temperature in the ORD cell. The data recorded consists of duplicates of CD spectra with cell temperatures varying 5 degrees centigrade at 222 nm.
Pilocarpine, reagent grade, was used at 1.33×10^-6 M in the sample solutions.
A buffer solution of 20 mM Na2 HPO4, pH 7.0, gives minimal absorption problems in the range 300 nm to 195 nm. Enzyme solutions contain from 21 μg/ml to 31 μ/ml of protein in buffer. Total ORD cell volume is 3.0 ml.
A buffer solution of 30 Na2 HPO4, pH 7.0,gave minimal absorption problems in the range 300 nm to 195 nm. Enzyme solutions contained from 21 μg/ml to 31 μg/ml of protein in buffer. Total ORD cell volume was 3.0 ml. Drugs were added to ORD cells in 0.002 ml volumes in order to minimize dilution effects. A Roussel-Jouan Dichrograph 11 sensitive to 1×10^-5 dichroic absorption unit per recording mm was used with a 10 mm, strain free, quartz ORD cell (Pyrocell, New Jersey, U.S.A.).
as §2
Data for CD was expressed so that experimental values could be compared with published helix composition values. All graphs and raw data were expressed as molar el lipticity [.THETA.] based on mean residue molecular weight because the true molecular weight of AChE has not been established for the brain enzyme.

The conditions of series [3]: local anesthesia; cited from earlier work.
The conditions of series [4]: cited from earlier work.
The target of another series is AChE (Bos taurus, UniProt P23795). As to the kind of experiment: Salt study: effect of MgSO4 on AChE of Prep E (AChE activity and CD helix). It is filed as biochemical, bovine. How it is done:
An AChE preparation (Prep E) was made using the scheme of S. L. Chan, supra "Purification of Beef Brain Acetylcholinesterase" Proceedings of the Western Pharmacology Society, 13:43-47, 1970. The AChE in 0.4M NaCl/[…] Na2 HPO4 was lyophilized and resuspended in 2.5 ml deionized water. The CD spectrum was made, and activity was checked qualitatively. The sample was dialyzed against 100 mM MgSO4 for 12 hours. AChE activity was qualitatively checked with CD. The sample was then redialyzed against 0.4M NaCl/30 mM Na2 HPO4 for 12 hours, checked for AChE activity and for CD absorption.
Activity of AChE was determined at 25° C.-30° C. and pH 8.0 by the spectrophotometric method of Ellman et al (Biochemical Pharmacology, 7:88-95 (1961). Measurements were made in the Hitachi Perkin-Elmer Model 139 spectrophotometer at 412 nm and 0.1 nm slit. One unit of AChE activity was defined as 1 μM of ATC (acetyl thiocholine iodide,Sigma) hydrolyzed per hour at 25° C. Specific activity is expressed as μmoles ATC hydrolyzed/ mg protein/ hour.

The conditions of series [5]: rats; cited from earlier work.
The conditions of series [6]: mice; cited from earlier work.
Setting [7] is: 7 Day old AChE with drug, 222 nm.
The mark [8] stands for this setting: AChE Prep B (7 Days Later) plus drug 1.33×10^-6 M, 222 nm.
Where [9] appears, read: AChE Prep B (7 Days Later) plus drug 1.33×10^-6 M.
Setting [10] is: AChE Prep B (7 Days Later), 222 nm.
Setting [11] is: Fresh AChE (Prep C) plus drug 1.33×10^-6 M, 222 nm.
[12] abbreviates: Fresh AChE (Prep C) plus drug 1.33×10^-6 M.
[13] abbreviates: Fresh AChE (Prep B) plus drug 1.33×10^-6 M.

Sequence of AChE (P23795 31-613): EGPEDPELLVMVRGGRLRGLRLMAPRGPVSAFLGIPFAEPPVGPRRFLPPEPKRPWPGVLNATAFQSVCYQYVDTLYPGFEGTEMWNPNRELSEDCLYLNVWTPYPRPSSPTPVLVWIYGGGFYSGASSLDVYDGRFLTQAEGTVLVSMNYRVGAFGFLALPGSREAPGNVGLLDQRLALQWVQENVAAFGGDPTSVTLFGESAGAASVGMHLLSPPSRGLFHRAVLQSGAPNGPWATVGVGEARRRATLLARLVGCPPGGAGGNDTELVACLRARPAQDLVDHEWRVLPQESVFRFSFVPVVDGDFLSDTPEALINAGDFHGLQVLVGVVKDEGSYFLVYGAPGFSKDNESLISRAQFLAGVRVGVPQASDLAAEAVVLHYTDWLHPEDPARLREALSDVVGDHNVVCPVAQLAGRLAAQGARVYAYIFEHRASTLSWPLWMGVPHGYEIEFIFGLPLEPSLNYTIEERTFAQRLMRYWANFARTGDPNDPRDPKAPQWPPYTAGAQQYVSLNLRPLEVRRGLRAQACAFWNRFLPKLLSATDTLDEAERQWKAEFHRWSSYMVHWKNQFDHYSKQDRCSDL

For `CCN(CC)CC(=O)Nc1c(C)cccc1C` [Lidocaine, Lidocaine hydrochloride monohydrate], the “ellipticity of drug alone” value in series [1] was “no ellipticity”. Also, the “% Loss of Helix (30° C. to 35° C.)” value in series [2] (setting [7]) worked out at 16.8%. Besides, the “[θ]30 - [θ]35” value in series [2] (setting [8]) was found to be 600. Besides, in series [2] (setting [9]), the “molar ellipticity [θ] at 222 nm, 30° C.” value is on record as -3,590. Moreover, in series [2] (setting [10]), the “Difference of Lidocaine from Above AChE, 30° C.” value was “+540” and the “Difference of Lidocaine from Above AChE, 35° C.” value was “+480”. Besides, in series [2] (setting [11]), the “[θ]30 - [θ]35” value was determined as 100 and the “[θ]38 - [θ]35” value is given as 770. Further, in series [2] (setting [12]), the “molar ellipticity [θ] at 222 nm, 30° C.” value is recorded as -5,560; the “molar ellipticity [θ] at 222 nm, 35° C.” value was -5,500; the “molar ellipticity [θ] at 222 nm, 38° C.” value is recorded as -4,830. For the same compound, in series [2] (Fresh AChE with drug, 222 nm), the “% Loss of Helix (30° C. to 35° C.)” value was determined as 1.8% and the “% Loss of Helix (35° C. to 40° C.)” value was determined as 13.6%. For the same compound, the “temperature needed to elicit the helix-coil transition in presence of drug” value in series [2] was “Higher temperatures were necessary”. For the same compound, the “duration of effective action” value in series [3] is 1 to 2 h. The allergic reactions entry in series [4] (compared with procaine) is “fewer known allergic reactions than procaine”. Also, the side effect result in series [4] (in vivo) was “drowsiness”.
For `O=S(=O)([O-])[O-].[Mg+2]` [MgSO4], the “random coil at 195 nm” value on AChE (AChE Prep E in 100 mM MgSO4, CD) was found to be 35%. At AChE (Prep E dialyzed against 100 mM MgSO4 for 12 hours), the “AChE Qualitative Activity” value is given as 0. Also, the “Helix 220 nm” value at AChE (Prep E dialyzed against 100 mM MgSO4 for 12 hours, CD) turned out to be 16 mm.
As for `CN1CCCC1c1cccnc1` (stereo not drawn) [Nicotine], in series [1], the “molar ellipticity [θ] of drug alone, 30° C.” value was -21,400.
Consider `CC[C@@H]1C(=O)OC[C@@H]1Cc1cncn1C` [Pilocarpine], for which, in series [1], the “ellipticity of drug alone” value is listed as “positive ellipticity”. The “molar ellipticity [θ] of drug alone, 30° C.” value in series [1] is reported as “+5,450”. Also, the “% Loss of Helix (30° C. to 35° C.)” value in series [2] (setting [7]) worked out at 20.7%; in series [2] (Fresh AChE with drug, 222 nm), 7.1%. Also, the “[θ]30 - [θ]35” value was found to be 720 in series [2] (setting [8]); 800 in series [2] (Fresh AChE (Prep B) plus drug 1.33×10^-6 M, 222 nm); 170 in series [2] (setting [11]). Further, the “molar ellipticity [θ] at 222 nm, 30° C.” value is given as -3,590 in series [2] (setting [9]), -11,300 in series [2] (setting [13]) and -4,490 in series [2] (setting [12]). The “molar ellipticity [θ] at 222 nm, 35° C.” value in series [2] (setting [9]) is recorded as -2,280; in series [2] (setting [13]), -10,500; in series [2] (setting [12]), -4,320. For the same compound, the “[θ]38 - [θ]35” value in series [2] (setting [11]) was determined as 780. For the same compound, the “molar ellipticity [θ] at 222 nm, 38° C.” value in series [2] (setting [12]) is listed as -3,540. Also, the “% Loss of Helix (35° C. to 40° C.)” value in series [2] (Fresh AChE with drug, 222 nm) came to 17.5%. Further, the “stabilization of helix in preparations not freshly prepared” value in series [2] (enzyme preparations more than one week old / not freshly prepared) is “not observed; also recorded: will not be protected”. Besides, the “stabilization of the alpha helix / prevention of the helical transition between 30° C. and 35° C.” value is listed as “appear to stabilize the helix” in series [2] (222 nm) and “prevent the helical transition” in series [2] (222 nm, listed as pilocarpine). Moreover, in series [2], the “temperature needed to elicit the helix-coil transition in presence of drug” value is on record as “Higher temperatures were necessary”.
With `CCCCN1CCCCC1C(=O)Nc1c(C)cccc1C` (stereo not drawn) [bupivacaine], in series [3], the “duration of effective action” value was 4 to 18 h.
In the case of `CCCN(CC)C(CC)C(=O)Nc1c(C)cccc1C` (stereo not drawn) [etidocaine], the “duration of effective action” value in series [3] is 4 to 18 h.
For `Cc1cccc(C)c1NC(=O)C1CCCCN1C` (stereo not drawn) [mepivacaine], in series [3], the “duration of effective action” value was 2 to 3 h and the onset of action entry was “rapid”.
In the case of `Cc1ccccc1N` [ortho-toliudine], the carcinogenicity result in series [5] and in series [6] was “carcinogenic” in each case.
`CCCNC(C)C(=O)Nc1ccccc1C` (stereo not drawn) [prilocaine]: the “duration of effective action” value in series [3] was 2 to 3 h. In addition, the side effect result in series [4] (doses greater than 400 mg) was “methemoglobinemia”; in series [4] (in vivo), “drowsiness”.
`CCN(CC)CCOC(=O)c1ccc(N)cc1` [procaine]: in series [3], the “duration of effective action” value was 1 to 2 h.
